Results on two substances are retold here after patent publication US9834660B2, “Rare earth metal complexes that excite in the long UV wavelength range” (HONEYWELL INTERNATIONAL INC., priority 2007, dated 2017).

The nature of this data set: Lightfastness: fluorescence intensity of dried drops on filter paper before and after SOL2 irradiation (simulated sunlight behind window glass). It is filed as physicochemical. As to conditions: dried drop on filter paper; for fluorescence intensity after 20 h of irradiation: after 20 h of irradiation (SOL2), 366 nm; for starting fluorescence intensity under 366 nm wavelength: before SOL2 irradiation, formula (IV) 5% solution in water, comparator in ethanol. From the text: As used herein, “lightfast,” “lightfastness,” and “light stable” are used interchangeably as measures of the degree of stability of fluorescence when a compound or composition is irradiated with light energy. The lightfastness of the europium complex of formula (IV), Europium[tris-4,4′-[3-[4-(4-sulfophenyl)-2-pyridinyl]-1,2,4-triazine-5,6-diphenyl]-bis-benzenesulfonic acid, trisodium)] chloride, was compared with a known europium diketonate complex, europium tris-benzoyltrifluoro-acetone, as follows: a 5% solution containing formula (IV) (in water) and a solution of europium-tris-benzoyltrifluoro-acetone (in ethanol) were prepared. One drop from each solution was placed onto a piece of filter paper. The drops were dried in air. The dried drops were then irradiated with SOL2 equipment (simulation of sunlight behind window glass). The starting fluorescence intensity under 366 nm wavelength for the drop containing europium-tris-benzoyltrifluoro-acetone was 19.4 cd/m^2, and the starting fluorescence intensity for the drop containing formula (IV) was 11.5 cd/m^2. After 20 h of irradiation at 366 nm, the fluorescence intensity for the drop containing europium-tris-benzoyltrifluoro-acetone had decreased to only 3.2 cd/m^2, as compared with a fluorescence intensity for the drop containing formula (IV) that was 10.7 cd/m^2.
This occurred even though the molar concentration of the solution containing formula (IV) was lower than the molar concentration of europium-tris-benzoyltrifluoro-acetone (2.2×10^−4 mol versus 6×10^−4 mol, respectively).

Take “europium tris-benzoyltrifluoro-acetone [europium-tris-benzoyltrifluoro-acetone]”: the “fluorescence intensity after 20 h of irradiation” value is reported as 3.2 cd/m^2 and the “starting fluorescence intensity under 366 nm wavelength” value is given as 19.4 cd/m^2.

As for “Europium[tris-4,4′-[3-[4-(4-sulfophenyl)-2-pyridinyl]-1,2,4-triazine-5,6-diphenyl]-bis-benzenesulfonic acid, trisodium)] chloride [formula (IV)]”, the “fluorescence intensity after 20 h of irradiation” value is reported as 10.7 cd/m^2 and the “starting fluorescence intensity under 366 nm wavelength” value is on record as 11.5 cd/m^2.
